According to patent US8017792B2, “1-thio-D-glucitol derivatives” (Taisho Pharmaceutical Co., Ltd., priority 2005, dated 2011):

Legend:
Human SGLT2 = target: T1, Human SGLT2 (Homo sapiens, UniProt P31639); assay: Sodium-dependent sugar uptake inhibition test in CHO-K1 cells stably expressing human SGLT2 (Test Example 2); type: cell-based; settings: for IC50: CHO-K1 cells, [14C]methyl-α-D-glucopyranoside 1 mM, 37° C., one hour; for SGLT1/SGLT2: ratio of IC50 human SGLT1 to IC50 human SGLT2
T1 construct: expressed in transfected cells; host or cells: CHO-K1
T1 sequence (P31639 1-672): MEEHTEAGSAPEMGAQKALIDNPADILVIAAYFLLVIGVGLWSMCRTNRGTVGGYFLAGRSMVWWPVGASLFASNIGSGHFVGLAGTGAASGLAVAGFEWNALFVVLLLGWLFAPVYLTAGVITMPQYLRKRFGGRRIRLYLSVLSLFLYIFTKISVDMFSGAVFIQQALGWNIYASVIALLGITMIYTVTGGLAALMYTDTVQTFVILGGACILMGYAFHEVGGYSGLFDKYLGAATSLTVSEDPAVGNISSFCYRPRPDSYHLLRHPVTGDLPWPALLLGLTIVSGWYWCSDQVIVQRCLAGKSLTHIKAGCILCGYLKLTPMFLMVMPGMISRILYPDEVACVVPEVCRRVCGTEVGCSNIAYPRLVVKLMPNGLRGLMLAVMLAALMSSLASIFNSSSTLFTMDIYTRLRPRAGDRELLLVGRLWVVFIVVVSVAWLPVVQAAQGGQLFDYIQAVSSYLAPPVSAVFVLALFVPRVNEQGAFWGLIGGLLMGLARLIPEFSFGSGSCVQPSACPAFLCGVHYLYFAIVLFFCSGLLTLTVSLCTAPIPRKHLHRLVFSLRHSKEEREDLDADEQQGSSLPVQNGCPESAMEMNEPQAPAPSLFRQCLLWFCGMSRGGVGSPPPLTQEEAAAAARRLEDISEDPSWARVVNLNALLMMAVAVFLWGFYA
Protocol: (§1) Human SGLT1 sequence (NM_000343) was reverse-transcripted from human small intestinal mRNA, then amplified, and then introduced into pCMV-tag5A from Stratagene Corporation. Human SGLT2 sequence (NM_003041) was prepared from human nephric mRNA as with the above method, and then introduced into pcDNA3.1+hygro from Invitrogen Corporation. Each cloned sequence was confirmed to be identical with the reported sequence.
(§2) CHO-K1 cells were transfected with the human SGLT1 and human SGLT2 expression vectors using Lipofectamine 2000 (Invitrogen Corporation). SGLT expression cells were cultured in the presence of geneticin (SGLT1) or hygromycin B (SGLT2) of the concentration of 500 μg/mL to select resistant strains. Cells were obtained using sugar uptake specific activity as an index in the following system.
(§3) Cells stably expressing human SGLT1 and human SGLT2 were used in the sodium-dependent sugar uptake activity inhibition test. Cells were incubated in 1 mL of a pretreatment buffer solution (140 mM choline chloride, 2 mM KCl, 1 mM CaCl2, 1 mM MgCl2, 10 mM HEPES/5 mM Tris, pH 7.4) for 20 minutes. The pretreatment buffer solution was removed and 200 μL of an uptake buffer containing test compounds (methyl-α-D-glucopyranoside containing [^14C]methyl-α-D-glucopyranoside (0.1 mM for SGLT1 inhibition, 1 mM for SGLT2 inhibition), 140 mM NaCl, 2 mM KCl, 1 mM CaCl2, 1 mM MgCl2, 10 mM HEPES/5 mM Tris, pH 7.4) were added, and uptake reaction was performed at 37° C. for 30 minutes (SGLT1) or for one hour (SGLT2). After the reaction, cells were washed with 1 mL of a washing buffer (10 mM methyl-α-D-glucopyranoside, 140 mM choline chloride, 2 mM KCl, 1 mM CaCl2, 1 mM MgCl2, 10 mM HEPES/5 mM Tris, pH 7.4) twice and dissolved in 400 μL of 0.2 M NaOH solution. After Aquazole 2 (Perkin Elmer Corporation) was added and mixed well, radioactivity was measured with a liquid scintillation counter (Beckman Coulter Corporation). A buffer for uptake which contained no test compound was prepared as a control group. Another buffer solution for uptake containing choline chloride in place of NaCl was also prepared for basic uptake.

Human SGLT1 = target: T2, Human SGLT1 (Homo sapiens, UniProt P13866); assay: Sodium-dependent sugar uptake inhibition test in CHO-K1 cells stably expressing human SGLT1 (Test Example 2); type: cell-based; settings: [14C]methyl-α-D-glucopyranoside 0.1 mM, 37° C., 30 minutes
T2 construct: expressed in transfected cells; host or cells: CHO-K1
T2 sequence (P13866 1-664): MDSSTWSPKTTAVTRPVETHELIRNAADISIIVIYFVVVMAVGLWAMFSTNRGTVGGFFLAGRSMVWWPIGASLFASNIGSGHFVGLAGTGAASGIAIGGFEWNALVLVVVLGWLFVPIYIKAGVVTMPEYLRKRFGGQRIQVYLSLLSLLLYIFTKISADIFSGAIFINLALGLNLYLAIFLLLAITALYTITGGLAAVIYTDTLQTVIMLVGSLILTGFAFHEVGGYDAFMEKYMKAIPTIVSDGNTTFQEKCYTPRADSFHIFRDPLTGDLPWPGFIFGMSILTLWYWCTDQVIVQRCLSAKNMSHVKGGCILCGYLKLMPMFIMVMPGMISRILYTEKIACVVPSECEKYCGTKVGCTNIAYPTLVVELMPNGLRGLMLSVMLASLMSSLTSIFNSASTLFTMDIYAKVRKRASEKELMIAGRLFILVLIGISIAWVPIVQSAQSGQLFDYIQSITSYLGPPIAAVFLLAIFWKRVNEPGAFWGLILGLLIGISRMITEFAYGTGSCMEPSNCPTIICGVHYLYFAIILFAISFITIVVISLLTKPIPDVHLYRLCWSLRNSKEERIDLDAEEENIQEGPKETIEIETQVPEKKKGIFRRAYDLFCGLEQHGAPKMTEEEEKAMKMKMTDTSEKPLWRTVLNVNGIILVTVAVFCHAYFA
Protocol: as §1, §2, §3

[1] = system: rat kidney brush border membrane vesicles (BBMV); assay: Glucose uptake inhibition in rat kidney brush border membrane vesicles (Test Example 1); type: biochemical; settings: D-[6-3H]glucose 0.1 mM, 37° C., five seconds, read-out: IC50 (concentration at which glucose uptake was inhibited by 50%)
Protocol: After 50 μL of a suspension (protein concentration: 4 mg/mL) of rat kidney brush border membrane vesicles (brush border membrane […]: BBMV) prepared following the method described in a document (Anal. Biochem., Vol. 201, Clause 301, 1984) was preincubated at 37° C. for two minutes, 150 μL of a reaction mixture which was a mixture of a test compound dissolved in DMSO (DMSO final concentration: 1%), 100 mM mannitol, 100 mM NaSCN or KSCN, 10 mM HEPES/Tris pH 7.4, D-glucose (final concentration: 0.1 mM) and 1 μCi of D-[6-^3H] glucose (Amersham) was added to this. After performing a reaction at 37° C. for five seconds, 1 mL of an ice cooled reaction terminating solution (150 mM NaCl, 10 mM HEPES/Tris pH 7.4, 0.3 mM phlorizin) was added to the reaction mixture to terminate the reaction, and BBMV was immediately separated by rapid filtration using a membrane filter (HAWP02500 having a pore size of 0.45 μm, Millipore). The membrane filter was washed three times with 4.5 mL of the ice cooled reaction terminating solution. After the membrane was dried sufficiently, radioactivity was measured with a liquid scintillation counter (Beckman) to quantify the amount of glucose taken in BBMV on the membrane filter.

Row | IC50 (Human SGLT2) | SGLT1/SGLT2 (Human SGLT2) | IC50 (Human SGLT1) | IC50 [1] | melting point | SMILES
1 | 370 nM | 7.2 | 2700 nM | 220 nM |  | CCOc1ccc(Cc2ccc(O)c([C@@H]3S[C@H](CO)[C@@H](O)[C@H](O)[C@H]3O)c2)cc1 [Compound 79, (1S)-1,5-Anhydro-1-[3-(4-ethoxybenzyl)-6-hydroxyphenyl]-1-thio-D-glucitol]
2 | 80 nM | 14.6 |  | 320 nM |  | CCOc1ccc(Cc2cc([C@@H]3S[C@H](CO)[C@@H](O)[C@H](O)[C@H]3O)ccc2Cl)cc1 [Compound 76, (1S)-1,5-Anhydro-1-[4-chloro-3-(4-ethoxybenzyl)phenyl]-1-thio-D-glucitol]
3 | 1120 nM | 0.6 | 700 nM | 350 nM | 91 to 105 °C | COc1ccc([C@@H]2S[C@H](CO)[C@@H](O)[C@H](O)[C@H]2O)cc1Cc1cc2ccccc2s1 [Compound 127, (1S)-1,5-Anhydro-1-[3-[(1-benzothien-2-yl)methyl]-4-methoxyphenyl]-1-thio-D-glucitol]
4 | 2830 nM | 9.7 | 27400 nM | 1600 nM |  | CCOc1ccc(Cc2cccc([C@@H]3S[C@H](CO)[C@@H](O)[C@H](O)[C@H]3O)c2)cc1 [Compound 75, (1S)-1,5-Anhydro-1-[3-(4-ethoxybenzyl)phenyl]-1-thio-D-glucitol]
5 | 140 nM | 4.4 | 600 nM | 790 nM | 105 to 115 °C | OC[C@H]1S[C@@H](c2ccc(Cl)c(Cc3cc4ccccc4s3)c2)[C@H](O)[C@@H](O)[C@@H]1O [Compound 128, (1S)-1,5-Anhydro-1-[3-[(1-benzothien-2-yl)methyl]-4-chlorophenyl]-1-thio-D-glucitol]
